pIC50: −log10 of the molar value. Structures can show the parent of a compound that is named as a salt. Where two headings read alike, the source gives them in different places. One block for each compound: values may come before it.
Experiments:
GRK2 [1] = biological target: T1, GRK2 (Homo sapiens, UniProt P25098); assay: GRK2 Inhibition Assay (TR-FRET, Example 1); type: biochemical; conditions: for IC50: TR-FRET, 7 μM ATP, read-out: Enzymatic GRK2 Assay: IC50 (nM) (Example 1)
T1 sequence (P25098 1-689): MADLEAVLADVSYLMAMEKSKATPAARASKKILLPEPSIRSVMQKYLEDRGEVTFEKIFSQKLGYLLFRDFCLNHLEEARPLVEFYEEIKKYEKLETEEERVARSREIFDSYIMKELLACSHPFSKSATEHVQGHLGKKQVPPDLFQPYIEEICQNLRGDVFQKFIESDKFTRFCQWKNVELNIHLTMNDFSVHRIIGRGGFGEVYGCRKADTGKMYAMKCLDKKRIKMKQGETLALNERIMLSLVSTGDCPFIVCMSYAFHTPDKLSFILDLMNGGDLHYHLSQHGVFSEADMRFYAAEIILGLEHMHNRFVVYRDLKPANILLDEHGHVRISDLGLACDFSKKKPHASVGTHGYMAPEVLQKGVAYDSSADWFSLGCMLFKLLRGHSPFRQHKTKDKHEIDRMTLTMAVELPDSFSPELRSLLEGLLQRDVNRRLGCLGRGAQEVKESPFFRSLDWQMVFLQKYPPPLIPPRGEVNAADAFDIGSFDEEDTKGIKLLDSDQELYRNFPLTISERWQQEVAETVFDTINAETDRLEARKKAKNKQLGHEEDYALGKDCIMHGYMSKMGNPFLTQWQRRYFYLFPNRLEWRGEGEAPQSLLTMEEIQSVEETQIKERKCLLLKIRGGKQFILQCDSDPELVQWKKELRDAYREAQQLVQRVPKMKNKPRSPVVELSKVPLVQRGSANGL
Experimental: Assay: GRK2 enzyme (1 nM final concentration) was diluted in 25 mM HEPES, 10 mM MgCl2, 2 mM DTT, 0.01% Tween-20, and 1 mM EGTA. Then the GRK2 mixture was added into ProxiPlate-384 white plate and pre-incubated for 30 min with test compounds at room temperature. ATP (7 μM final concentration) and Ulight TopoIIα (50 nM final concentration) were added into the assay plate to initiate the reaction and the mixture was incubated at room temperature for 90 min. Then, Eu anti-TopoIIα (0.12 nM final concentration), BSA (0.01% final concentration), and EDTA (11 mM final concentration) in LANCE assay buffer were added into each well. After 60 min incubation time at room temperature, TR-FRET signal was measured by EnVision plate reader.

GRK2 [2] = biological target: T1, GRK2; assay: GRK2 Degradation Assay and Western Blot in PAXF1657 cells; type: cell-based; design: endogenous in cells; host or cells: PAXF1657; conditions: read-out: Degradation Assay - 3 point: Degradation (%); for inhibition at 0.3 µM: Conc 0.3 uM; for inhibition at 1 µM: Conc 1 uM; for inhibition at 3 µM: Conc 3 uM
Experimental: General Protocol: Degradation Assay and Western Blot. PAXF1657 cells were plated in 6-well, 24-well plates or 60 mm tissue culture treated dishes and incubated at 37° C. until 70% confluency. The media was aspirated, and the cells were treated with fresh media containing the compounds in the concentration range of 0 μM to 10 μM for a period of 6 to 24 hours. At the desired time points the cells were washed twice with cold PBS and lysed with lysis buffer (ice cold PBS+1% NP40 with 1/100 protease/phosphatase inhibitors) on ice for 8 mins followed by sonication at 70% intensity pulses for 10 seconds. The cells were centrifuged at 20000 g for 8 min at 4° C. The supernatants were collected and stored at −80° C.
Samples were mixed with NuPAGE LDS sample buffer and NuPAGE sample reducing buffer (3×), vortexed and heated at 95° C. for 10 min, and then analyzed by SDS-PAGE (NuPAGE 4-12%) followed by transfer to nitrocellulose membrane. […] The membranes were washed three times with TBST and incubated with GRK2 or R-actin antibodies in 5% milk in TBST at 4° C. overnight. The membranes were washed three times with TBST and incubated with anti-mouse IgG-HRP or anti-rabbit IgG-HRP at room temperature for 2 hours in 5% milk in TBST. The membranes were washed three times with TBST and developed with ECL Dura, ECL femto or ECL atto substrates.

PAXF1657 KO Clone #4 = assay: 7-day cellular proliferation assay (CellTiter-Glo), PAXF1657 KO Clone #4; type: cell-based; conditions: proliferation, read-out: GeoMean IC50 (uM) PAXF1657 KO Clone #4
Experimental: (§1) In order to identify compounds specific for GRK2, we generated two isogenic cell line pairs of the pancreatic cancer cell line PAXF1657, a pair of cells stably overexpressing GRK2 cDNA or the control empty vector and a cell line pair of PAXF1657 GRK2 knockout clonal cells versus non-targeting control clonal cells.
(§2) Proliferation Assay: Cellular anti-proliferative activity of compounds was assessed by using the pancreatic cancer cell line, PAXF1657, stably overexpressing GRK2 cDNA or the control empty vector, as well as the parental urinary bladder cancer cell line, 5637. In addition, we also took advantage of GRK2 knockout cell lines that were generated via CRISPR. Cell lines were seeded into tissue culture treated, white-walled, 96-well plates at a density of 500 cells/well in RPMI1640 media supplemented with 10% H.I. FBS and penicillin/streptomycin. Plates were incubated overnight at 37° C., 5% CO2 to allow cells to adhere to the wells. GRK2 inhibitors were added to the cells using a 10-point dilution series with a final concentration ranging from 30 μM-0.0002 μM in 0.3% DMSO. At the time of compound addition, a set of plates, that were not treated with compounds, were collected and cell viability was measured using CellTiter-Glo (Promega). CellTiter-Glo reagent was added to the designed plates and luminescence was measuring using a Biotek Synergy plate reader. The compound treated cells were incubated for 3 days at 37° C., 5% CO2. The media was then aspirated from each well and replaced with fresh media containing GRK2 inhibitors. The compound treated cells were then incubated for an additional 4 days at 37° C., 5% CO2. Cell viability was assessed and at end of the 7-day compound treatment by CellTiterGlo.

PAXF1657 EV = assay: 7-day cellular proliferation assay (CellTiter-Glo), PAXF1657 EV; type: cell-based; conditions: proliferation, read-out: GeoMean IC50 (UM) PAXF1657 EV
Experimental: as §1, §2

Structure (SMILES): C[C@H](NC(=O)c1cccc(NCc2nnc(-c3ccncn3)n2C)c1)c1cc(OCCCCCCOCCOCCOCCCCCC(=O)Nc2cccc3c2CN(C2CCC(=O)NC2=O)C3=O)ccc1F (stereo partly drawn) [Compound D53, N-((1S)-1-(5-((6-(2-(2-((6-((2-(2,6-dioxopiperidin-3-yl)-1-oxoisoindolin-4-yl)amino)-6-oxohexyl)oxy)ethoxy)ethoxy)hexyl)oxy)-2-fluorophenyl)ethyl)-3-(((4-methyl-5-(pyrimidin-4-yl)-4H-1,2,4-triazol-3-yl)methyl)amino)benzamide]
IC50 (GRK2 [1]): 100 to 1000 nM

Structure (SMILES): C[C@H](NC(=O)c1cccc(NCc2nnc(-c3ccncn3)n2C)c1)c1cccc(OCCCCCCOCCOCCOCCCCCC(=O)Nc2cccc3c2CN(C2CCC(=O)NC2=O)C3=O)c1 (stereo partly drawn) [Compound D55, N-((1S)-1-(3-((6-(2-(2-((6-((2-(2,6-dioxopiperidin-3-yl)-1-oxoisoindolin-4-yl)amino)-6-oxohexyl)oxy)ethoxy)ethoxy)hexyl)oxy)phenyl)ethyl)-3-(((4-methyl-5-(pyrimidin-4-yl)-4H-1,2,4-triazol-3-yl)methyl)amino)benzamide]
IC50 (GRK2 [1]): < 100 nM

Structure (SMILES): C[C@H](NC(=O)c1cccc(NCc2nnc(-c3ccncn3)n2C)c1)c1ccc(OCCCCN2CCN(c3ccc4c(c3)CN(C3CCC(=O)NC3=O)C4=O)CC2)cc1 (stereo partly drawn) [Compound D117, N-((1S)-1-(4-(4-(4-(2-(2,6-dioxopiperidin-3-yl)-1-oxoisoindolin-5-yl)piperazin-1-yl)butoxy)phenyl)ethyl)-3-((4-methyl-5-(pyrimidin-4-yl)-4H-1,2,4-triazol-3-yl)methylamino)benzamide hydrochloride]
pIC50 (GRK2 [1]; Table 4, Example 1 assay, read-out: Enzymatic GRK2 IC50: Av IC50 GRK2): < 6.00 | inhibition at 0.3 µM (GRK2 [2]): 12.3% | inhibition at 1 µM (GRK2 [2]): -20.5% | inhibition at 3 µM (GRK2 [2]): -4.97%

Structure (SMILES): Cn1c(CNc2cccc(C(=O)NCc3cccc(OCCCCCOCCCOCC(=O)N4CCN(c5ccc6c(c5)CN(C5CCC(=O)NC5=O)C6=O)CC4)c3)c2)nnc1-c1ccncn1 (stereo not shown) [Compound D189, N-(3-((5-(3-(2-(4-(2-(2,6-dioxopiperidin-3-yl)-1-oxoisoindolin-5-yl)piperazin-1-yl)-2-oxoethoxy)propoxy)pentyl)oxy)benzyl)-3-(((4-methyl-5-(pyrimidin-4-yl)-4H-1,2,4-triazol-3-yl)methyl)amino)benzamide]
inhibition at 0.3 µM (GRK2 [2]): 2.78% | inhibition at 1 µM (GRK2 [2]): 35.8% | inhibition at 3 µM (GRK2 [2]): 58.5% | IC50 (PAXF1657 KO Clone #4): > 30 µM | pIC50 (PAXF1657 EV): 6.38

Structure (SMILES): Cn1c(CNc2cccc(C(=O)NCc3cccc(OCCCCCCOCCOCCOCCC(=O)Nc4cccc5c4CN(C4CCC(=O)NC4=O)C5=O)c3)c2)nnc1-c1ccncn1 (stereo not shown) [Compound D195, N-(3-(6-(2-(2-(3-(2-(2,6-dioxopiperidin-3-yl)-1-oxoisoindolin-4-ylamino)-3-oxopropoxy)ethoxy)ethoxy)hexyloxy)benzyl)-3-((4-methyl-5-(pyrimidin-4-yl)-4H-1,2,4-triazol-3-yl)methylamino)benzamide]
inhibition at 0.3 µM (GRK2 [2]): -46.4% | inhibition at 1 µM (GRK2 [2]): 9.8% | inhibition at 3 µM (GRK2 [2]): 32.1% | IC50 (PAXF1657 KO Clone #4): > 30 µM | pIC50 (PAXF1657 EV): 5.96

Further lines, results first:

IC50 (GRK2 [1]): < 100 nM
Structure (SMILES): C[C@@H](NC(=O)c1cccc(NCc2nnc(-c3ccncn3)n2C)c1)c1cc(OCCCCCCOCCOCCOCCCCCC(=O)Nc2cccc3c2CN(C2CCC(=O)NC2=O)C3=O)ccc1F (stereo partly drawn) [Compound D54, N-((1R)-1-(5-((6-(2-(2-((6-((2-(2,6-dioxopiperidin-3-yl)-1-oxoisoindolin-4-yl)amino)-6-oxohexyl)oxy)ethoxy)ethoxy)hexyl)oxy)-2-fluorophenyl)ethyl)-3-(((4-methyl-5-(pyrimidin-4-yl)-4H-1,2,4-triazol-3-yl)methyl)amino)benzamide]

IC50 (GRK2 [1]): 100 to 1000 nM
Structure (SMILES): Cc1ncsc1-c1ccc(CNC(=O)[C@@H]2C[C@@H](O)CN2C(=O)[C@@H](NC(=O)CCCCCOCCOCCOCCCCCCOc2ccc(F)c([C@H](C)NC(=O)c3cccc(NCc4nnc(-c5ccncn5)n4C)c3)c2)C(C)(C)C)cc1 [Compound D74, (2S,4R)-1-((S)-2-(tert-butyl)-22-(4-fluoro-3-((S)-1-(3-(((4-methyl-5-(pyrimidin-4-yl)-4H-1,2,4-triazol-3-yl)methyl)amino)benzamido)ethyl)phenoxy)-4-oxo-10,13,16-trioxa-3-azadocosan-1-oyl)-4-hydroxy-N-(4-(4-methylthiazol-5-yl)benzyl)pyrrolidine-2-carboxamide]

IC50 (GRK2 [1]): < 100 nM
Structure (SMILES): Cc1ncsc1-c1ccc(CNC(=O)[C@@H]2C[C@@H](O)CN2C(=O)[C@@H](NC(=O)CCCCCOCCOCCOCCCCCCOc2ccc(F)c([C@@H](C)NC(=O)c3cccc(NCc4nnc(-c5ccncn5)n4C)c3)c2)C(C)(C)C)cc1 [Compound D75, (2S,4R)-1-((S)-2-(tert-butyl)-22-(4-fluoro-3-((R)-1-(3-(((4-methyl-5-(pyrimidin-4-yl)-4H-1,2,4-triazol-3-yl)methyl)amino)benzamido)ethyl)phenoxy)-4-oxo-10,13,16-trioxa-3-azadocosan-1-oyl)-4-hydroxy-N-(4-(4-methylthiazol-5-yl)benzyl)pyrrolidine-2-carboxamide]

IC50 (GRK2 [1]): < 100 nM
Structure (SMILES): Cc1ncsc1-c1ccc(CNC(=O)[C@@H]2C[C@@H](O)CN2C(=O)C(NC(=O)CCCCc2cn(CCCCCCOc3cccc(CNC(=O)c4cccc(NCc5nnc(-c6ccncn6)n5C)c4)c3)nn2)C(C)(C)C)cc1 (stereo partly shown) [Compound D84]

IC50 (GRK2 [1]): 100 to 1000 nM
Structure (SMILES): Cc1ncsc1-c1ccc(CNC(=O)[C@@H]2C[C@@H](O)CN2C(=O)[C@@H](NC(=O)CCCCCOCCOCCOCCCCCCOc2ccc(F)c(CNC(=O)c3cccc(NCc4nnc(-c5ccncn5)n4C)c3)c2)C(C)(C)C)cc1 [Compound D88, (2S,4R)-1-((S)-2-(tert-butyl)-22-(4-fluoro-3-((3-(((4-methyl-5-(pyrimidin-4-yl)-4H-1,2,4-triazol-3-yl)methyl)amino)benzamido)methyl)phenoxy)-4-oxo-10,13,16-trioxa-3-azadocosan-1-oyl)-4-hydroxy-N-(4-(4-methylthiazol-5-yl)benzyl)pyrrolidine-2-carboxamide]

IC50 (GRK2 [1]): < 100 nM
Structure (SMILES): Cc1ncsc1-c1ccc(CNC(=O)[C@@H]2C[C@H](O)CN2C(=O)[C@@H](NC(=O)CCCCCOCCOCCOCCCCCCOc2cccc(CNC(=O)c3cccc(NCc4nnc(-c5ccncn5)n4C)c3)c2)C(C)(C)C)cc1 [Compound D89]

From patent publication US20240174637A1, “DEGRADERS OF GRK2 AND USES THEREOF” (Sonata Therapeutics, Inc., priority 2021, published 2024)
